Measured values taken from US4868195A, “Novel enolamides, pharmaceutical compositions and methods of use thereof for activity as modulators of the arachidonic acid cascade” (Warner-Lambert Company, priority 1988, dated 1989).
Several values for one entry are separate records, joined by “and”; a condition that tells them apart may be missing. Equal values may be shown once.

Target: T1, 5-lipoxygenase (Homo sapiens, UniProt P09917)
T1 construct: endogenous in cells; host or cells: intact leukocytes isolated from human blood
T1 sequence (P09917 1-674): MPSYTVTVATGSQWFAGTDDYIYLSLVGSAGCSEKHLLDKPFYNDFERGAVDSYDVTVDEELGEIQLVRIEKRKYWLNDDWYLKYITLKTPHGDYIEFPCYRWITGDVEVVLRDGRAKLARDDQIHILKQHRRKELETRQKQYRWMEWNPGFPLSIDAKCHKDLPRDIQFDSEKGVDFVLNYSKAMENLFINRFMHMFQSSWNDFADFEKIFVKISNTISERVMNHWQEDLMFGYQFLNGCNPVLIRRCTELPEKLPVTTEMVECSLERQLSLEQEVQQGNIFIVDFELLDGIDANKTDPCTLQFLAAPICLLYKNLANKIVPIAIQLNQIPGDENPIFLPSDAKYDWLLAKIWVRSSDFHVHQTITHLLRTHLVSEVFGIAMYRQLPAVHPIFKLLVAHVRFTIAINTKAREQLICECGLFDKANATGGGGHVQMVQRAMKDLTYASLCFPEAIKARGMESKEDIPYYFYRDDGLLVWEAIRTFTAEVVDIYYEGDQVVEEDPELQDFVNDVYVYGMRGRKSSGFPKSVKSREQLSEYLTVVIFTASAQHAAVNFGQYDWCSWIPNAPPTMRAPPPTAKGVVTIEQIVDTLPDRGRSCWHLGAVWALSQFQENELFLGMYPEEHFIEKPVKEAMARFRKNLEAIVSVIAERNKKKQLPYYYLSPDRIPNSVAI
Test: 5-Lipoxygenase Assay Using Isolated Human Leukocytes (5LOA2)
Format: cell-based
Settings: 5-HETE formation, HPLC, read-out: Concentration (M) for 50.0 % Inhibition, IC (5LOA2)
Method: 5-Lipoxygenase Assay Using Isolated Human Leukocytes (5LOA2)
The formation of 5-HETE in human leukocytes is considered a measure of 5-lipoxygenase activity. The protocol is described in the following.
Fresh heparinized or EDTA treated human blood is mixed with 6% dextran-3% dextrose in isotonic saline in the ratio 0.25 ml dextran solution per 1.0 ml blood. After mixing the blood is allowed to sit at room temperature for about 90 minutes while the RBC's settle. During this period, the plasma is removed with a plastic pepette to nalgens tubes.
The plasma is centrifuged at 800 rpm ([…]) on the Beckman Td-b refrigerated centrifuge to remove the platelets (which remain in the supernatant). The pellet, consisting of leukocytes and erythrocytes, is treated with 10 ml 0.87% ammonium chloride at room temperature for four minutes, lysing the red cells. At the end of four minutes the cells are diluted with a 2x volume of phosphate buffered saline, pH 7.4, and centrifuged for ten minutes. The cells are washed three times with the phosphate buffered saline. […]
A portion of the ethanol solution is injected into the HPLC system for 5-HETE quantitation.
The HPLC system consists of Hewlett-Packard 1040A UV spectrophotometry system with an HP85 computer. […] Peaks are measured with a Hewlett Packard 3390A integrator. […] The flow is monitored at 235 nm for 5-HETE quantitation. […]

Structure (SMILES)	IC50
O=C(Nc1ccccc1CCc1ccc(Cl)c(Cl)c1)C1=C(O)c2ccccc2S(=O)(=O)C1 [Example 8, N-[2-[2-(3,4-Dichlorophenyl)ethyl]phenyl]-4-hydroxy-2H-1-benzothiopyran-3-carboxamide, 1,1-dioxide]	5e-06 M and 4.6e-06 M
O=C(Nc1ccccc1Cc1ccc(Cl)c(Cl)c1)C1=C(O)c2ccccc2S(=O)(=O)C1 [Example 81, 2H-1-Benzothiopyran-3-carboxamide, N-[2-[(3,4-dichlorophenyl)methyl]phenyl]-4-hydroxy, 1,1-dioxide]	8.4e-06 M
